Data reported in the NIST ThermoML archive (doi:10.1016/j.jct.2011.09.003).
± gives the expanded uncertainty stated by the source.

Legend:
[1] = for surface tension liquid-gas: digital tensiometer; for mass density: 101.33 kPa, Liquid, Vibrating tube method
[2] = xn = mol fraction of the nth substance listed; conditions: 298.15 K; for surface tension liquid-gas: digital tensiometer; for mass density: 101 kPa, Liquid, Vibrating tube method

## CCCC[n+]1ccccc1.O=[N+]([O-])[O-] [1-butylpyridinium nitrate]
[1]; 293.15 K
  surface tension liquid-gas: 52.32 ± 0.4 mN/m
  mass density: 1192.7 ± 0.4 kg/m3
[1]; 298.15 K
  surface tension liquid-gas: 51.53 ± 0.4 mN/m
  mass density: 1188.5 ± 0.4 kg/m3
[1]; 303.15 K
  surface tension liquid-gas: 51.21 ± 0.39 mN/m
  mass density: 1185.4 ± 0.4 kg/m3
[1]; 308.15 K
  surface tension liquid-gas: 50.97 ± 0.39 mN/m
  mass density: 1181.2 ± 0.4 kg/m3
[1]; 313.15 K
  surface tension liquid-gas: 50.53 ± 0.39 mN/m
  mass density: 1176.5 ± 0.4 kg/m3
[1]; 318.15 K
  surface tension liquid-gas: 49.99 ± 0.39 mN/m
  mass density: 1173.5 ± 0.4 kg/m3
[1]; 323.15 K
  surface tension liquid-gas: 49.53 ± 0.39 mN/m
  mass density: 1169.2 ± 0.4 kg/m3
[1]; 328.15 K
  surface tension liquid-gas: 49.3 ± 0.4 mN/m
  mass density: 1165.6 ± 0.4 kg/m3
[1]; 333.15 K
  surface tension liquid-gas: 48.96 ± 0.39 mN/m
  mass density: 1163.2 ± 0.4 kg/m3
[1]; 338.15 K
  surface tension liquid-gas: 48.64 ± 0.39 mN/m
  mass density: 1159.4 ± 0.4 kg/m3

## CCCC[n+]1ccccc1.O=[N+]([O-])[O-] [1-butylpyridinium nitrate] + O
[2]; x1 = 0.0097
  surface tension liquid-gas: 43.71 ± 2.2 mN/m
  mass density: 1016.3 ± 1.6 kg/m3
[2]; x1 = 0.015
  surface tension liquid-gas: 40.11 ± 0.36 mN/m
  mass density: 1024.4 ± 1.3 kg/m3
[2]; x1 = 0.0359
  surface tension liquid-gas: 37.59 ± 0.31 mN/m
  mass density: 1051.1 ± 1.2 kg/m3
[2]; x1 = 0.0498
  surface tension liquid-gas: 37.5 ± 0.3 mN/m
  mass density: 1067 ± 1.1 kg/m3
[2]; x1 = 0.0593
  surface tension liquid-gas: 37.6 ± 0.3 mN/m
  mass density: 1076.1 ± 0.8 kg/m3
[2]; x1 = 0.0816
  surface tension liquid-gas: 38.02 ± 0.31 mN/m
  mass density: 1092.6 ± 0.7 kg/m3
[2]; x1 = 0.1136
  surface tension liquid-gas: 40.03 ± 0.31 mN/m
  mass density: 1113.6 ± 0.4 kg/m3
[2]; x1 = 0.2067
  surface tension liquid-gas: 41.69 ± 0.31 mN/m
  mass density: 1144.7 ± 0.3 kg/m3
[2]; x1 = 0.3247
  surface tension liquid-gas: 44.01 ± 0.32 mN/m
  mass density: 1165.5 ± 0.2 kg/m3
[2]; x1 = 0.447
  surface tension liquid-gas: 46.05 ± 0.33 mN/m
  mass density: 1176.9 ± 0.2 kg/m3
[2]; x1 = 0.633
  surface tension liquid-gas: 48.01 ± 0.34 mN/m
  mass density: 1182.2 ± 0.3 kg/m3
[2]; x1 = 0.7604
  surface tension liquid-gas: 49.25 ± 0.36 mN/m
  mass density: 1185.3 ± 0.3 kg/m3
[2]; x1 = 0.8226
  surface tension liquid-gas: 49.56 ± 0.37 mN/m
  mass density: 1186.6 ± 0.3 kg/m3
[2]; x1 = 0.9023
  surface tension liquid-gas: 50.78 ± 0.38 mN/m
  mass density: 1188 ± 0.4 kg/m3
[2]; x1 = 1
  surface tension liquid-gas: 51.53 ± 0.4 mN/m
  mass density: 1188.5 ± 0.4 kg/m3

## O [water] + CCCC[n+]1ccccc1.O=[N+]([O-])[O-]
[2]; x2 = 0
  surface tension liquid-gas: 72.03 ± 0.31 mN/m
  mass density: 1000 ± 0.1 kg/m3
